The molecules below were run against T1, Ubiquitin carboxyl-terminal hydrolase 19 (Homo sapiens, UniProt O94966) (assay: Inhibition of C-terminal His6-tagged recombinant human USP19 using iso-peptide ubiquitin-Lys-TAMRA as substrate incubated for 30 mins and measured after 90 mins by fluorescent polarization assay).
T1 sequence (O94966 whole entry): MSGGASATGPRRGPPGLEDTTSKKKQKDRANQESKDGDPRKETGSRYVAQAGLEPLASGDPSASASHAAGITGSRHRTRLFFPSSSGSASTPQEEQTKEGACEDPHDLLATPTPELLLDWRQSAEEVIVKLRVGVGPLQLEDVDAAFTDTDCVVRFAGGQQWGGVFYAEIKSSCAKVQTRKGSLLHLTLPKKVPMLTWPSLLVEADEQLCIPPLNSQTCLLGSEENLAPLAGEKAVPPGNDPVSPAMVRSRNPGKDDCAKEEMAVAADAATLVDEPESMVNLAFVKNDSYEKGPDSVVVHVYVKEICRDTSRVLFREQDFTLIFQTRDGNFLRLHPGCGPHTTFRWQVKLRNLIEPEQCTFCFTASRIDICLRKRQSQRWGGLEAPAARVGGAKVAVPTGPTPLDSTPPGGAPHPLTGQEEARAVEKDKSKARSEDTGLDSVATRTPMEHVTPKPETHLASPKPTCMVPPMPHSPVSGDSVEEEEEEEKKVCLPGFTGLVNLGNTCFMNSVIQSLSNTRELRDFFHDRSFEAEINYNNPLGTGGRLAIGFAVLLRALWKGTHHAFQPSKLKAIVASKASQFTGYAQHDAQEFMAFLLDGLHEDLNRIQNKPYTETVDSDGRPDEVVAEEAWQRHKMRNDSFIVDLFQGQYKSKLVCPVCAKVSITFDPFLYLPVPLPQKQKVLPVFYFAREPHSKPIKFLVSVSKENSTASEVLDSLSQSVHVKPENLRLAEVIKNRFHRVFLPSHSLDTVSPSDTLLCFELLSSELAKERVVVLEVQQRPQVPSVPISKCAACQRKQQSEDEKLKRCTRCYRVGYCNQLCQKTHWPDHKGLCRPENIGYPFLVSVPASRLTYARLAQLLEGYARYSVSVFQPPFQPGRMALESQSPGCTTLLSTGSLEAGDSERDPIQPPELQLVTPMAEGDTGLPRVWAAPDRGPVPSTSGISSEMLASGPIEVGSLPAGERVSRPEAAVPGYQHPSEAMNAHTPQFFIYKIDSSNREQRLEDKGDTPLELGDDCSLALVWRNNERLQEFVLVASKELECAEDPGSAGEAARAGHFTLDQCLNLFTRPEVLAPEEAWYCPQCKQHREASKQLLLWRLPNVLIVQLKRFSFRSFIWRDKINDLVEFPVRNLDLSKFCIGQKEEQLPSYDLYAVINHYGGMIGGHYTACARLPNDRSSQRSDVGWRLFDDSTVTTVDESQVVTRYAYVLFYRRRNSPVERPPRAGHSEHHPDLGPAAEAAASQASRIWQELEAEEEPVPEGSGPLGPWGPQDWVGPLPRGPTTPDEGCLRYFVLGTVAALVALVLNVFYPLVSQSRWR

SMILES | IC50 [µM]
C[C@H](CC1CCCCC1)C(=O)N1CCC(O)(Cn2cc(C(=O)N(C)C)c(-c3cccc(CO)c3)cc2=O)C2(CCCC2)C1 (stereo partly specified) | < 0.5
C[C@H](CC(C)(F)F)C(=O)N1CC[C@@](O)(Cn2cnc(-c3ccccc3)cc2=O)C2(CCCC2)C1 | < 0.5
C[C@@H]1CN(C(=O)c2cn(C[C@]3(O)CCN(C(=O)[C@H](C)CC4CCCCC4)CC3(C)C)c(=O)cc2-c2ccccc2)CCN1 | < 0.5
C[C@H](CC(F)(F)F)C(=O)N1CC[C@@](O)(Cn2cnc(-c3ccccc3F)cc2=O)C2(CCCC2)C1 | < 0.5
C[C@H](CC1CCCCC1)C(=O)N1CCC(O)(Cn2cc(C(=O)N(C)C)c(-c3ccccc3)cc2=O)C2(CCCCC2)C1 (stereo partly specified) | < 0.5
C[C@H](CC1CCCCC1)C(=O)N1CCC(O)(Cn2cc(C(=O)N(C)C)c(-c3ccsc3)cc2=O)C2(CCCC2)C1 (stereo partly specified) | < 0.5

Results, then the molecule that gave them:

IC50 [µM] | SMILES
< 0.5 | C[C@H](CC1CCCCC1)C(=O)N1CCC(O)(Cn2cc(C(=O)N3CCN(C)CC3)c(-c3ccccc3)cc2=O)C(C)(C)C1 (stereo partly specified)
< 0.5 | CCOC(=O)c1cn(C[C@]2(O)CCN(C(=O)[C@H](C)CC3CCCCC3)CC23CCCC3)c(=O)cc1-c1ccccc1
< 0.5 | C[C@H](CC1CCCCC1)C(=O)N1CC[C@@](O)(Cn2cc(C(=O)N3CCCC3)c(-c3ccccc3)cc2=O)C(C)(C)C1
< 0.5 | C[C@H](CC1CCCCC1)C(=O)N1CC[C@@](O)(Cn2cc(C(=O)N3CCNCC3)c(C3CC3)cc2=O)C2(CCCC2)C1
< 0.5 | C[C@H](CC1CCC1)C(=O)N1CC[C@@](O)(Cn2cc(C(=O)N3CCNCC3)c(-c3ccccc3F)cc2=O)C2(CCCC2)C1

From ChEMBL document CHEMBL5052841, “Usp19 inhibitors for use in therapy” (2020)
